PubChem BioAssay AID449764 (Southern Research Specialized Biocontainment Screening …, 2010)

Tested on: Mycobacterium tuberculosis H37Rv growth inhibition, no glycerol
Assay: Mycobacterium tuberculosis H37Rv growth inhibition, no glycerol, confirmatory dose response (AID 449764);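 also: growth read after 7 days of incubation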
Conditions: not given

SMILES	IC50
On1onc2c3cc(-c4ccccc4)nc3ccc21	< 0.2 µM
Cc1cccc(OCc2n(CC(=O)OC3CC(C)CCC3C(C)C)c3ccccc3[n+]2C)c1 (stereo not given)	8.63 µM
C=C1C(=O)[C@@]23[C@H](O)C[C@@H]4C(C)(C)CC[C@H](O)[C@@]4(C)[C@@H]2CC[C@@H]1[C@H]3O	8.35 µM
Cc1noc(C)c1COc1ccc(C(=O)OCC(=O)NC23CC4CC(CC(C4)C2)C3)cc1	23.9 µM
Ic1ccccc1CN[C@@H]1C2CCN(CC2)[C@@H]1C(c1ccccc1)c1ccccc1	28.9 µM
CCOC(=O)c1nc2sc3c(c2c(=O)[nH]1)CCC(C)C3 (stereo not given)	69.8 µM
COc1ccc(C(=O)Cn2nc(CNc3ccc(Br)cc3)[n+]3c2CCCCC3)cc1	12.3 µM
CCOC(=O)CNc1ccc(C(=O)OCC)cc1[N+](=O)[O-]	18.1 µM
Cc1[nH][nH]c(=O)c1C(c1ccc(-c2ccc(Cl)c(Cl)c2)o1)c1c(C)[nH][nH]c1=O	82.1 µM
CCC(C)NC(=O)c1c(N)n(/N=C/c2ccccn2)c2nc3ccccc3nc12 (stereo not given)	13.7 µM
COc1cc(/C=N/n2c(-c3ccc4c(c3)NC(=O)CO4)csc2=Nc2cccc(C)c2)ccc1O	37.8 µM
CCOC(=O)/C(=N/Nc1ccc(OC)cc1)N1CCCc2ccccc21	95.3 µM
CCOC(=O)c1cc2cc3ccccc3cc2oc1=O	84.8 µM
CC(C)(C)CC(C)(C)c1ccc(OCCOCC[N+](C)(C)Cc2ccccc2)cc1	42.8 µM
Cc1ccc(Cl)cc1N1CCN(CC(=O)NC2CCCc3ccccc32)CC1 (stereo not given)	35.6 µM
N#C/C(N=Nc1ccccc1O)=N\Nc1ccccc1O	2.25 µM
COc1ccccc1C1CC(c2ccc(Cl)cc2)Nc2ncnn21 (stereo not given)	22.7 µM
CCc1cc(/C(Cc2ccccn2)=N\Nc2ccccc2)c(O)cc1O	85.7 µM
CN1CCN(c2ccc(S(=O)(=O)N3CCCCC3)cc2NC(=O)/C=C/c2ccc(Cl)c([N+](=O)[O-])c2)CC1	34.9 µM
CN(C)C(=O)C1C2NC(=S)N(c3ccc(Cl)cc3)C1(C)Oc1ccc(Cl)cc12 (stereo not given)	31.7 µM
Cc1ccc(/C=C/S(=O)(=O)NCC(=O)OCC(=O)Nc2c(F)cccc2F)cc1	22.9 µM

SMILES	IC50
O=C(Nc1ncc(Cc2ccccc2Cl)s1)C1=NCCN1	23.7 µM
CCOC(=O)C(C)Sc1ncnc2c1nnn2-c1ccc(F)cc1 (stereo not given)	2.61 µM
O=C(/C=C/c1ccc(O)cc1)c1ccc(NC2=C(N3CCCCC3)C(=O)c3ccccc3C2=O)cc1	17.5 µM
COc1cc2c(cc1OC)C(c1cc(Br)ccc1F)N(C(=O)CCl)CC2 (stereo not given)	16.6 µM
COC(=O)COc1ccc(-c2ccccc2)cc1C=O	16.1 µM
CCc1ccc(C2c3[nH]c4ccccc4c3CCN2C(=O)c2ccc(=O)n(C)n2)cc1 (stereo not given)	51.3 µM
CC1CCN(C(=O)c2ccc(-c3ccccc3Cl)o2)CC1	41 µM
COc1ccc(C(=O)C2CCCN(C3CSCCSC3)C2)c(C)c1 (stereo not given)	33.5 µM
CCc1ccc(-c2cc(C)no2)cc1S(=O)(=O)NCCCN1CCN(c2ccccc2)CC1	39 µM
CCOC(=O)C1CCCc2c1[nH]c1c(C(N)=O)cccc21 (stereo not given)	8.59 µM
Cc1ccc(C)c(NC(=O)c2cc(-c3ccccc3)nn2-c2ccccc2)c1	34.6 µM
COc1cc2c(cc1OC)C1(Nc3c-2c(-c2ccccc2)nn3-c2ccccc2)C(=O)Nc2ccccc21 (stereo not given)	80.9 µM
CCCCn1cnc2c(c(-c3ccccc3)c(-c3ccccc3)n2Cc2ccco2)c1=N	94.8 µM
COc1ccc(OCC(=O)Nc2c(C(=O)N(CCN(C)C)Cc3ccco3)oc3ccccc23)cc1	41.8 µM
CCNc1nc(Nc2ccc(C)c(Cl)c2)c2cnn(C)c2n1	70 µM
O=C(CSc1nnnn1-c1ccc2c(c1)OCCO2)OC1CCCCC1	22.8 µM
CCOc1cc2c3c(c1)C1(C(=O)N3C(C)(C)CC2C)C(C#N)=C(N)N2C(=C1C#N)Nc1ccccc12 (stereo not given)	37.8 µM
CCOc1ccc(-c2cc(C(=O)NCCCn3ccnc3)c3cc(Br)ccc3n2)cc1	24.9 µM
O=C(OCc1ccccc1)/C(=C(\O)c1ccccc1Br)c1ccc(-c2ccccc2)cn1	35.4 µM
Cc1ccc(S(=O)(=O)N2CCC(C(=O)OCc3ccccc3)CC2)cc1C	46.5 µM
CC/C(C)=N/NC(=S)NCc1ccco1	81.1 µM

SMILES	IC50
CC(=O)N1CCN(c2ccc(Oc3ccc([N+](=O)[O-])c(C(F)(F)F)c3)cc2)CC1	93.5 µM
Cc1cc(=O)oc2cc(Oc3ccc([N+](=O)[O-])cc3C(F)(F)F)ccc12	50 µM
COc1ccc(C2=NC(=O)/C(=C\c3cc(OC)c(OC)c(OC)c3)O2)cc1	11.1 µM
CCc1cc2c(=O)n(C(C)C(=O)OC3CCCCC3)cnc2s1 (stereo not given)	24.1 µM
CCCc1cc(NC(=O)CCl)n(-c2ccccc2)n1	2.93 µM
Cc1cc(C)n(-c2nc(Nc3ccccc3C(F)(F)F)nc(-n3nc(C)cc3C)n2)n1	1.3 µM
Cc1cc(C)c2ccc(NN)nc2c1O	4.04 µM
CCc1ccc(NC2=NCC(c3ccccc3)S2)cc1 (stereo not given)	8.96 µM
Cc1cccc(N2CCN(CC(=O)Nc3nccs3)CC2)c1C	39.3 µM
CCOc1cc(/C=C2\COc3ccccc3C2=O)cc(Br)c1OCC(=O)N(C)C	6.73 µM
CCOC(=O)COc1ccc(C2CC(C)=NN2c2ccccc2)cc1 (stereo not given)	8.21 µM
C=C(C)C1CC=C(CN2CCN(Cc3ccccc3)CC2)CC1 (stereo not given)	17.8 µM
O=C(Nc1ccc(Oc2cccc(C(F)(F)F)c2)nc1)c1cccs1	85.3 µM
CC(C)(C)NC(=O)C(c1c[nH]c2ccccc12)N(C(=O)Cn1nnc(-c2ccc(F)cc2)n1)c1cccc(O)c1 (stereo not given)	34.7 µM
N=c1oc2cc(O)ccc2cc1C(=O)Nc1ccc(Br)cc1	1.72 µM
COc1ccc(-c2nc(CN3CCN(c4cc(C)nc(C)c4)CC3)c(C)o2)c2ccccc12	23.4 µM
O=C(N[C@H]1CCC(=O)N(CCSc2ccc(Br)cc2)CC1)OCc1ccccc1	32.9 µM
CCN1c2ccccc2N(C)C1(C)c1ccccc1 (stereo not given)	8.65 µM
CN1CCN(C2=Cc3ccc(Cl)cc3Sc3ccc(F)cc32)CC1	25.9 µM
CCCCOc1ccc(-c2nnn(C(C)C(=O)OCC)n2)cc1 (stereo not given)	2.8 µM
CCC(=O)N1c2ccc(S(=O)(=O)CCC(=O)N3CCn4c3nc3ccccc34)cc2CC1C (stereo not given)	23.4 µM

SMILES	IC50
CCOC(=O)C1CCN(CC(O)COc2ccc(C(C)(C)CC)cc2)CC1 (stereo not given)	23.2 µM
Nc1c(C(=O)OCC2CCCO2)c2nc3ccccc3nc2n1C1CCCC1 (stereo not given)	60.7 µM
CC1=CC(=O)c2c(O)ccc(O)c2C1=O	5.64 µM
CSc1cccc(CNC(=O)C2CCC(=O)N(Cc3cccc(C(F)(F)F)c3)C2)c1 (stereo not given)	36.9 µM
O=[N+]([O-])c1ccc(CN2CCN(c3ccc(Cl)cc3)CC2)o1	0.44 µM
N#CCCN(C(=O)COC(=O)CCc1c[nH]c2ccccc12)c1ccc(F)cc1	34.4 µM
S=c1nc2ccccc2c2nc(-c3ccccc3)[nH]n12	17.6 µM
CC(C)Cn1c([N+](=O)[O-])nc2c1c(=O)[nH]c(=O)n2C	9.69 µM
CC1CCCCC1NC(=O)c1ccc2c(c1)[nH]c(=O)n2C1CCCC1 (stereo not given)	9.65 µM
CCC(=O)c1ccc(OCC(=O)OCC(=O)c2cc(C)n(C3CC3)c2C)cc1	19.2 µM
CC(C)Nc1nc(NC(C)C)nc(N(C)N)n1	32.2 µM
CS(=O)(=O)c1ccc([C@@H](O)[C@@H](CF)NC(=O)C(Cl)Cl)cc1	16.8 µM
CCOC(=O)c1csc(-c2snnc2C)n1	28.4 µM
CC(=NCc1ccc2c(c1)OCO2)C1=C(O)c2ccccc2C1=O	< 0.2 µM
CC(C)(C)c1csc(NC(=O)c2c(F)c(F)c(F)c(F)c2F)n1	21 µM
Cc1ccc(/C=N/NC(=S)NC(C)C)o1	42.4 µM
COc1ccc(/C=N/Nc2cc(N3CCCC3)nc(N3CCCC3)n2)cc1	18.6 µM
Cc1cc2nc(C3CCN(CC4COc5ccccc5O4)CC3)[nH]c2cc1C (stereo not given)	17.8 µM
N#Cc1c(-c2ccccc2)c(-c2ccccc2)nn(CC(=O)NNC(=O)Nc2ccc(Cl)c(Cl)c2)c1=O	47.9 µM
NCCCn1c(C(=O)c2ccc(Cl)cc2)c2ccc([N+](=O)[O-])cc2[n+]1[O-]	34 µM
COc1ccc(CNC(=O)c2c(N)n(CCCN3CCOCC3)c3nc4ccccc4nc23)cc1	92.4 µM

Same assay, conditions: measured here: IC90 growth inhibition

SMILES	IC90
On1onc2c3cc(-c4ccccc4)nc3ccc21	< 0.2 µM
